Tests used:
[1] = system: MDA468 breast tumor cells; experiment: In vitro cell growth assay (MTS), MDA468; assay type: cell-based, human; conditions: three days after drug treatment
Method: (§1) Cell lines used were human adenocarcinoma (LoVo), […], prostate (LNCap), breast (MDA468, MCF7), colon (HCT116), renal (HTB44 A498), and ovarian (OVCAR3) tumor cell lines. The tumor cells were plated in 96-well culture plates at approximately 3000 cells per well. One day following plating, various concentrations of inhibitors in DMSO were added to cells (final DMSO concentration in cell assays was 0.25%). Three days after drug treatment, viable cell densities were determined by cell mediated metabolic conversion of the dye MTS, a well-established indicator of cell proliferation in vitro. Cell growth assays were performed using kits purchased from Promega Corporation (Madison, Wis.), following the protocol provided by the vendor. Measuring absorbance at 490 nm generated MTS assay results. Compound effect on cell proliferation was assessed relative to untreated control cell growth.

[2] = system: LNCap prostate tumor cells; experiment: In vitro cell growth assay (MTS), LNCap; assay type: cell-based, human; conditions: three days after drug treatment
Method: as §1

PI3Kα = PI3Kα (Homo sapiens, UniProt P42336); experiment: PI3Kα fluorescence polarization assay; assay type: biochemical; conditions: 20 μM PIP2, 25 μM ATP
Method: The reaction buffer was 20 mM HEPES pH7.5, 2 mM MgCl2, 0.05% CHAPS, and 0.01% βME (added fresh). The substrate solution was 40 μM PIP2 (diC8, Echelon, Salt Lake City Utah cat #P-4508, 1 mM in water) and 50 μM ATP in the reaction buffer. Nunc 384-well black polypropylene fluorescent plates were used for PI3K assays. The assay is run by putting 9.5 μl of freshly diluted enzyme in the reaction buffer per well, adding 0.5 μl of diluted drug or DMSO, and mixing. Then 10 μl of the substrate solution is added to each well to start the reaction. A final concentration of 20 μM PIP2 and 25 μM ATP in the reaction was used. Reactions were allowed to proceed for 30-60 minutes at room temperature. After 30-60 minutes, 20 μl of a solution of 10 nM TAMRA detector (Red detector probe-Echelon) and 2.5 uM of GST-murine GRP (1.5 mg/ml in 17% glycerol) was added per well to stop the reaction. The resulting solution was mixed well and allowed to stand for 90-110 minutes before reading plate. Assay Plates were read on Perkin-Elmer Envision plate readers with appropriate filters for Tamra [BODIPY-TMRI(1,3,4,5)P4]. Data obtained were used to calculate enzymatic activity and enzyme inhibition by inhibitor compounds. It is important to keep Red probe solutions dark. This procedure is adapted from Echelon Biosciences Inc procedure for their PI3-Kinase fluorescence polarization activity Assay kit Product number K-1100.

human TOR (FLAG-TOR) = human TOR (FLAG-TOR) (Homo sapiens, UniProt P42345); experiment: mTOR enzyme assay (DELFIA format, purified enzyme); assay type: biochemical; conditions: 800 ng/ml FLAG-TOR, 100 μM ATP, 1.25 μM His6-S6K; read-out: mTOR Kinase IC50

Chain of PI3Kα (P42336 whole entry, species assumed): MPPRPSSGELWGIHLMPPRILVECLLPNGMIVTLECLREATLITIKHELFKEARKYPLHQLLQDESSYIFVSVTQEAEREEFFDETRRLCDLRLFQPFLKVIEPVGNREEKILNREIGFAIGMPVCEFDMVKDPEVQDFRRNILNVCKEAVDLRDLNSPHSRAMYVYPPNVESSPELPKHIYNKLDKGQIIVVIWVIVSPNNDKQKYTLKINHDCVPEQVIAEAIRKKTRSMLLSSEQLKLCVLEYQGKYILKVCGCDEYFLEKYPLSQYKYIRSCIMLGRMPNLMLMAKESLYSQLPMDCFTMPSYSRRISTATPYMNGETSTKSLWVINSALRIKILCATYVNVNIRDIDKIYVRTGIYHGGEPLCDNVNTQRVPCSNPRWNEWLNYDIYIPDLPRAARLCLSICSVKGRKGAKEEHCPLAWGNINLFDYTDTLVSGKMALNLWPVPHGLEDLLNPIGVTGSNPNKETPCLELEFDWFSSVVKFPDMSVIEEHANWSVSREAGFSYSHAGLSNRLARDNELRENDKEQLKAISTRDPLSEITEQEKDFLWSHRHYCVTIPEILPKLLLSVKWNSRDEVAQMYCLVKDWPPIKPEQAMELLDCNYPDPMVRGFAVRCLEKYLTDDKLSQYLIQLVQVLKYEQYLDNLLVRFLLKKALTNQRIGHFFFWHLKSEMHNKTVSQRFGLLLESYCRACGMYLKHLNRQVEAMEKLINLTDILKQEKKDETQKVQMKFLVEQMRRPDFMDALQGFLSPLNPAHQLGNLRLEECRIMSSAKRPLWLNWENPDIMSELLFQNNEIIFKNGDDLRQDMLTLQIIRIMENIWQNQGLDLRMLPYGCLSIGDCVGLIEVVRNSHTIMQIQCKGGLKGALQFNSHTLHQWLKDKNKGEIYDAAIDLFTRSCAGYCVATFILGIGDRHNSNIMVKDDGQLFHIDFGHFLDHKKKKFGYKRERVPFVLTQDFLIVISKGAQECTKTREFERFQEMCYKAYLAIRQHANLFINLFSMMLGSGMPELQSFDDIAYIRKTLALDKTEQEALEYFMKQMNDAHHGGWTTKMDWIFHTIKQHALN
Chain of PI3Kα (P27986 whole entry partner, species assumed): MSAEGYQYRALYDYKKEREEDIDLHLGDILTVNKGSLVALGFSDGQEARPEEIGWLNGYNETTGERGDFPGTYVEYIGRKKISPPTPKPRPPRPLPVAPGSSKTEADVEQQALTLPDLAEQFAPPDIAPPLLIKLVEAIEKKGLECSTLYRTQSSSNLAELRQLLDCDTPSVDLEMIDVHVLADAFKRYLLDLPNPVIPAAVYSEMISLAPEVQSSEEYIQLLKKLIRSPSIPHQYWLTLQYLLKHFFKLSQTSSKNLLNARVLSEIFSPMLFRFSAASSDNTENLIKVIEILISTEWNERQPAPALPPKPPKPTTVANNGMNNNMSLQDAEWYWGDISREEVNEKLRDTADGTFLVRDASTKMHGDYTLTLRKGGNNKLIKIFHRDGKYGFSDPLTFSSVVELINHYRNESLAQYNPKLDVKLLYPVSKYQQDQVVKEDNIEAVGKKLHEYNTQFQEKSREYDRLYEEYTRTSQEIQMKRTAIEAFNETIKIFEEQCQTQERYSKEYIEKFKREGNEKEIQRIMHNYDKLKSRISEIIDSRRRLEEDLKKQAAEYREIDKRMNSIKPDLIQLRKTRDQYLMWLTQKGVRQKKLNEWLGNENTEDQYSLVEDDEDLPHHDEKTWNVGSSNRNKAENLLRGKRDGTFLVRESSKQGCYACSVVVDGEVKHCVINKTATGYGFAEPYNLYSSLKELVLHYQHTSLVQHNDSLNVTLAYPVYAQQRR

IC50 ([1]; Homo sapiens, 72 h) | IC50 ([2]; Homo sapiens, LNCaP, 72 h) | IC50 (PI3Kα) | IC50 (human TOR (FLAG-TOR)) | IC50 [2] | IC50 [1] | SMILES
> 60 µM | 6 µM | 12 µM | 0.34 µM | – | – | O=c1cc(Oc2cccc(OCCO)c2)c2ccccc2[nH]1
60 µM | 9.3 µM | > 10 µM | 0.3 µM | – | – | COc1cccc(Oc2cc(=O)[nH]c3ccccc23)c1
10 µM | 5 µM | > 10 µM | 0.15 µM | – | – | O=c1cc(Oc2cccc(NCc3ccncc3)c2)c2ccccc2[nH]1
4.1 µM | 3 µM | 9.54 µM | 0.18 µM | – | – | O=c1cc(Oc2cccc(NCC3CCN(Cc4ccccc4)CC3)c2)c2ccccc2[nH]1
8 µM | 3.3 µM | 7.98 µM | 0.09 µM | – | – | O=c1cc(Oc2cccc(NCc3ccc(-c4cccnc4)cc3)c2)c2ccccc2[nH]1
> 60 µM | 18 µM | 4.17 µM | 1.15 µM | – | – | Cc1ccc(Oc2cc(=O)[nH]c3ccccc23)cc1
60 µM | 11.5 µM | 11.8 µM | 4.5 µM | – | – | CC(C)(C)OC(=O)n1ccc2cc(CNc3cccc(Oc4cc(=O)[nH]c5ccccc45)c3)cnc21
60 µM | 7 µM | > 10 µM | 0.37 µM | – | – | O=c1cc(Oc2cccc(-c3ccncc3)c2)c2ccccc2[nH]1
11.5 µM | 8 µM | > 10 µM | 0.15 µM | – | – | Nc1ccncc1CNc1cccc(Oc2cc(=O)[nH]c3ccccc23)c1
3.8 µM | > 60 µM | 2.69 µM | > 20 µM | – | – | O=c1cc(Oc2cccc(-c3cccs3)c2)c2ccccc2[nH]1
8 µM | 4 µM | 7.16 µM | 0.11 µM | – | – | Nc1ccc(CNc2cccc(Oc3cc(=O)[nH]c4ccccc34)c2)cn1
30 µM | 11 µM | 9.52 µM | 0.29 µM | – | – | Nc1ccc(-c2cccc(Oc3cc(=O)[nH]c4ccccc34)c2)cc1
22 µM | 4.2 µM | 5.8 µM | 0.3 µM | – | – | N#CCc1cccc(Oc2cc(=O)[nH]c3ccccc23)c1
23 µM | 12 µM | > 10 µM | 0.47 µM | – | – | O=c1cc(Oc2cccc(-c3ccc4[nH]ccc4c3)c2)c2ccccc2[nH]1
> 60 µM | 60 µM | 8.48 µM | 0.25 µM | – | – | O=C(NCCO)Nc1ccc(-c2cccc(Oc3cc(=O)[nH]c4ccccc34)c2)cc1
28 µM | 7 µM | > 10 µM | 0.32 µM | – | – | CCN(CC)CCOc1cccc(Oc2cc(=O)[nH]c3ccccc23)c1
> 60 µM | > 60 µM | > 10 µM | 0.23 µM | – | – | O=C(NCCO)c1ccc(-c2cccc(Oc3cc(=O)[nH]c4ccccc34)c2)cc1
> 60 µM | > 60 µM | > 10 µM | 2.25 µM | – | – | O=c1cc(Oc2cccc([N+](=O)[O-])c2)c2ccccc2[nH]1
35 µM | 22 µM | 0.383 µM | 14.5 µM | – | – | O=C(Cc1cccs1)Nc1ccc2[nH]c(=O)cc(Oc3ccccc3)c2c1
60 µM | 30 µM | 0.63 µM | 0.63 µM | – | – | O=c1cc(Oc2cccc(-c3ccsc3)c2)c2ccccc2[nH]1
> 60 µM | > 60 µM | 4.68 µM | 9.1 µM | – | – | COc1ccccc1Oc1cc(=O)[nH]c2ccccc12
40 µM | – | > 10 µM | 0.5 µM | 60 µM | – | Cc1cccc(Oc2cc(=O)[nH]c3ccccc23)c1 [drawing 313]
12 µM | 5 µM | > 10 µM | 0.31 µM | – | – | CN(C)c1ncccc1CNc1cccc(Oc2cc(=O)[nH]c3ccccc23)c1
30 µM | 8 µM | 5.59 µM | 0.17 µM | – | – | Nc1cccc(-c2cccc(Oc3cc(=O)[nH]c4ccccc34)c2)c1

IC50 ([1]; Homo sapiens, 72 h) | IC50 ([2]; Homo sapiens, LNCaP, 72 h) | IC50 (PI3Kα) | IC50 (human TOR (FLAG-TOR)) | IC50 [2] | IC50 [1] | SMILES
> 60 µM | > 60 µM | > 10 µM | 1.12 µM | – | – | O=c1cc(Oc2cccc(F)c2)c2ccccc2[nH]1
60 µM | 8.5 µM | 6.74 µM | 0.4 µM | – | – | COc1ncccc1CNc1cccc(Oc2cc(=O)[nH]c3ccccc23)c1
12 µM | 6 µM | > 10 µM | 0.24 µM | – | – | CN(C)CCNC(=O)c1ccc(-c2cccc(Oc3cc(=O)[nH]c4ccccc34)c2)cc1
9 µM | 7 µM | > 10 µM | 0.1 µM | – | – | CN(C)CCNC(=O)Nc1ccc(-c2cccc(Oc3cc(=O)[nH]c4ccccc34)c2)cc1
40 µM | > 60 µM | 1.02 µM | 11.5 µM | – | – | O=c1cc(Oc2ccccc2)c2cc(-c3cc[nH]n3)ccc2[nH]1
19 µM | 6.5 µM | > 10 µM | 0.19 µM | – | – | O=c1cc(Oc2cccc(NC3CCN(Cc4ccccn4)CC3)c2)c2ccccc2[nH]1
– | 5.3 µM | 11 µM | 0.13 µM | – | > 60 µM | O=c1cc(Oc2cccc(NCc3cccnc3Cl)c2)c2ccccc2[nH]1 [drawing 207]
> 60 µM | > 60 µM | 0.938 µM | > 20 µM | – | – | O=c1cc(Oc2ccc(-c3ccccc3)cc2)c2ccccc2[nH]1
13 µM | 6.7 µM | > 10 µM | 0.12 µM | – | – | O=c1cc(Oc2cccc(-c3ccc(NC4CCN(Cc5ccncc5)CC4)cc3)c2)c2ccccc2[nH]1
5 µM | 4 µM | > 10 µM | 1.35 µM | – | – | CC(C)OC(=O)Nc1ccc(-c2cccc(Oc3cc(=O)[nH]c4ccccc34)c2)cc1
8 µM | 4.8 µM | 5 µM | 0.18 µM | – | – | CN(C)CCNc1ccc(-c2cccc(Oc3cc(=O)[nH]c4ccccc34)c2)cc1
> 60 µM | 12 µM | > 10 µM | 0.2 µM | – | – | O=c1cc(Oc2cccc(-c3ccc(N4CCOCC4)nc3)c2)c2ccccc2[nH]1
13 µM | 4.9 µM | 3.42 µM | 0.12 µM | – | – | O=c1cc(Oc2cccc(NCc3cnc4[nH]ccc4c3)c2)c2ccccc2[nH]1
60 µM | 17 µM | > 10 µM | 0.63 µM | – | – | O=c1cc(Oc2cccc(-c3ccccc3)c2)c2ccccc2[nH]1
23 µM | 8 µM | > 10 µM | 3.23 µM | – | – | CN(C)CCc1ccc(Oc2cc(=O)[nH]c3ccccc23)cc1
27 µM | 7.5 µM | 2.22 µM | 0.16 µM | – | – | Nc1ccc(Oc2cc(=O)[nH]c3ccccc23)cc1
1.95 µM | 23 µM | 9 µM | 0.09 µM | – | – | Nc1ccc(-c2cccc(Oc3cc(=O)[nH]c4ccccc34)c2)cn1
25 µM | 7 µM | > 10 µM | 0.22 µM | – | – | O=C(NCCN1CCOCC1)Nc1ccc(-c2cccc(Oc3cc(=O)[nH]c4ccccc34)c2)cc1
> 60 µM | > 60 µM | 1.94 µM | > 20 µM | – | – | O=c1cc(Oc2ccc(-c3ccoc3)cc2)c2ccccc2[nH]1
3 µM | 3 µM | 4.62 µM | 0.23 µM | – | – | Cn1cc(CN(Cc2ccn(C)n2)c2cccc(Oc3cc(=O)[nH]c4ccccc34)c2)cn1
60 µM | 7 µM | 8 µM | 0.75 µM | – | – | O=c1cc(Oc2cccc(OC(F)(F)F)c2)c2ccccc2[nH]1
60 µM | > 60 µM | > 10 µM | 0.26 µM | – | – | COCCNC(=O)Nc1ccc(-c2cccc(Oc3cc(=O)[nH]c4ccccc34)c2)cc1
> 60 µM | > 60 µM | > 10 µM | > 20 µM | – | – | CC(=O)N1CCC(C(=O)Nc2ccc3[nH]c(=O)cc(Oc4ccccc4)c3c2)CC1
9 µM | 4 µM | > 10 µM | 0.21 µM | – | – | CN1CCN(c2ccc(-c3cccc(Oc4cc(=O)[nH]c5ccccc45)c3)cn2)CC1

SMILES | IC50 ([1]; Homo sapiens, 72 h) | IC50 ([2]; Homo sapiens, LNCaP, 72 h) | IC50 (PI3Kα) | IC50 (human TOR (FLAG-TOR)) | IC50 [2] | IC50 [1]
O=c1cc(Oc2cccc(-c3ccc(NCCCl)cc3)c2)c2ccccc2[nH]1 | 11 µM | 6.2 µM | > 10 µM | 0.44 µM | – | –

Reference: patent US20100068204A1, “4-ARYLOXYQUINOLIN-2(1H)-ONES AS MTOR KINASE AND PI3 KINASE INHIBITORS, FOR USE AS ANTI-CANCER AGENTS” (Wyeth, priority 2008, published 2010)
